# Source: patent publication US20070269420A1, “Compounds, Compositions and Methods for Treatment and Prophylaxis of Hepatitis C Viral Infections and Associated Diseases” (priority 2003, published 2007)
# Like-named read-outs stand apart in the source and are kept apart here.
# What was measured:
# HCV NS4B = biological target: T1, HCV NS4B (Hepatitis C virus genotype 1b, UniProt Q9WMX2); experiment: NS4B binding assay (quenching of intrinsic protein fluorescence)
# T1 construct: NS4B was cloned, expressed and purified to establish an assay; made in house
# From the text: NS4B was cloned, expressed and purified to establish an assay, which takes advantage of the intrinsic fluorescent properties of proteins and identifies compounds, which inhibit by a NS4B specific mechanism. This protein is necessary for viral replication. It is thought to act as an anchor securing the replication complex to cellular membranes, where replication is known to occur. Several other functions necessary for viral replication have also ascribed to NS4B.
# [1] = test system: HCV replicon (BB7 sequence) in Huh-7-Clone A cells; experiment: HCV replicon NS5A ELISA, inhibition of viral RNA replication; format: cell-based, hepatitis C virus; conditions: Hepatitis C virus
# Method: Antiviral activity of representative compounds of the invention was evaluated in a human liver-derived cell line (Huh-7-Clone A) containing the HCV replicon (BB7 sequence) (See Lohmann et al. Science. 1999, 285:110-3; Blight K J et al., Science. 2000, 290:1972-4; Pietschmann, T. et al., J. Virol. 2001, 73:1252-1264; and Lohmann, V. et al., J. Virol. 2001, 75:1437-1449). The HCV replicon is a subgenomic viral RNA that expresses the HCV proteins required for its own replication. These proteins include non-structural proteins NS3, NS4A, NS4B, NS5A and NS5B. The replicon also contains a foreign gene encoding a drug-selectable marker (neomycin phosphotransferase) to allow for G418 (neomycin) selection of cells that contain the replicon.
# An ELISA (enzyme-linked immunosorbant assay) was used to determine the effect of compounds within the scope of the invention on the amount of HCV NS5A protein produced after a 72-hour incubation of the replicon-containing cells in the presence of varying concentrations of compound. Huh7-Clone A cells were seeded in 96-well plates at a subconfluent density (9000 cells/well) in medium containing 2% FBS and incubated for 4 hours to allow attachment to occur. HCV-086 (solubilized with 100% dimethylsulfoxide [DMSO]) was added to wells using an 8-point, 3-fold serial dilution series, with a final DMSO concentration of 1% in a total volume of 200 μL. Plates were incubated for 72 hours at 37° C. and 5% CO2. Under these conditions, the cells are approximately 25% confluent at the time of seeding and 80-90% confluent on day 3. COSTAR® 96-well cell culture plates were used but other known cell culture plates may be used. After incubation, media is removed from wells and the cells are fixed to the assay plate using 0.05% glutaraldehyde (Fisher # 02957-4). The glutaraldehyde is then washed off using phosphate-buffered saline (PBS) following a 1 hour incubation and cells are blocked for non-specific antibody binding using for example SUPERBLOCK® reagent (blocking buffer) in PBS. The blocking agent is rinsed from the cells with PBS after 1 hour at 37° C., and HCV NS5A monoclonal antibody (Virostat # 1873) is added to each well containing compound. Primary antibody is incubated for 1 hour at 37° C. and rinsed 3 times with PBS containing 0.02% TWEEN-20™ before addition of Horseradish Peroxidase (HRP) conjugated secondary antibody. HRP is incubated for 1 hour at 37° C. and rinsed several times, first with PBS/TWEEN-20™ followed by PBS alone. To quantify peroxidase activity, 3,3′,5,5′-tetramethylbenzidine (TMB) substrate is added to the plate and after 30 minutes, the plates are read in an ELISA plate reader at an OD of 650 nm.
# Compound dose response was measured in an 8-point dose curve diluted serially to determine the inhibitory concentration at 50% (EC50 value). […] Ranges of 50% effective concentrations (EC50s) for the representative compounds within the scope of this invention are listed in Tables 1-8. Preferred compounds have 50% effective concentrations at about 30 μM or less, more preferred compounds have 50% effective concentrations at about 5 μM or less, and most preferred compounds have 50% effective concentrations at about 0.5 μM or less.
# [2] = Crystal Violet cellular toxicity in parental cells harboring no replicon; format: cell-based; conditions: human, parental Huh-7 cells (harboring no replicon), 72-hour period, parental Huh-7 cells lacking replicon
# Method: (§1) Huh-7 cells (harboring no replicon) and wild type replicon cells were seeded onto a 96 well plate. All cells were subjected to increasing amounts of a representative compound of the invention, as described in the replicon ELISA protocol. In order to assess the cellular toxicity of a compound of Formula I in both Huh-7 cells (harboring no replicon) and wild type replicon, cells were stained with Crystal Violet (a nonspecific protein stain) after 72 hours. The […] values for cells lacking replicon were generally >100.0 μM in parental Huh-7 cells for each compound. […] In this case the cells' natural defenses are strengthened and apoptosis, a natural defense to viral infection, occurs. The Huh-7 cell line is the parental cell line harboring no HCV subgenomic replicon. In this cell line, the toxicity is reduced due to the fact that there is no NS4B for the compound to bind. If the cellular toxicity in cells comprising HCV replicons and in the parental Huh-7 cell line (no replicon) are the same, then they are effective in inhibiting HCV replication rather than the modulation of apoptosis.
# (§2) During drug screening efforts to identify compounds having binding affinity for HCV NS4B, the triazinoindole class of compounds of Formula VII was identified. […] However a cellular toxicity (CC50) of 20 μM was also found. […]
# [3] = test system: genotype 1b (BB7 isolate) replicon-containing cells; experiment: Selection of replicon variants under test compound; format: cell-based, hepatitis C virus; conditions: cell line passaged in the presence of 5 μM test compound for 7 passages
# Method: To select for replicon variants, genotype 1b (BB7 isolate) replicon-containing cells were cultured and in the presence of 5 μM of the test compound for 7 passages. As a control, genotype 1b (BB7 isolate) replicon-containing cells were passaged in parallel, without the test compound. […] Total cellular RNA was extracted from both cell lines using Trizol Reagent (Invitrogen #15596-026) according to the manufacturer's protocol. NS5B cDNA was generated in a two-step RT-PCR reaction. PCR products were ligated into pPCR-Script Amp SK (+) (Stratagene #211188), transformed into E. coli, and sequenced.
# The changes are as follows: K52R, G120V and A210S.
# [4] = Crystal Violet cellular toxicity in wild type replicon cells; format: cell-based; conditions: human
# Method: as §1, §2
# [5] = Table 1, phenyl benzamide compounds, read-out: Kd
# [6] = Table 1, NS5A protein, 72-hour incubation, read-out: ELISA EC50
# [7] = Table 2, pyrazolopyrimidine compounds, read-out: Kd
# [8] = Table 2, NS5A protein, 72-hour incubation, read-out: ELISA EC50
# [9] = Table 5, aminothiophene compounds, read-out: Kd
# [10] = Table 5, NS5A protein, 72-hour incubation, read-out: ELISA EC50
# [11] = Table 6, phenylthiazolylamine compounds, read-out: Kd
# [12] = Table 6, NS5A protein, 72-hour incubation, read-out: ELISA EC50
# [13] = Table 7, triazinoindole compounds, read-out: Kd
# [14] = Table 7, NS5A protein, 72-hour incubation, read-out: ELISA EC50
smiles,measurement,setting,value
CC(=O)c1ccc(NC(=O)c2cc3c(C)nn(-c4ccccc4)c3s2)cc1 [Example 1],Kd,"HCV NS4B; Table 4, thienopyrazole compound, read-out: Kd",1000 nM
same,EC50,"[1]; Table 4, NS5A protein, 72-hour incubation, read-out: ELISA EC50",3150 nM
CCC(C)c1ccc(NC(=O)c2ccccc2F)cc1 (stereo not shown) [Example 1],Kd,HCV NS4B; [5],2530 nM
same,EC50,[1]; [6],2700 nM
CCCCc1c(C)nn(-c2nnc3c4ccccc4n(CC)c3n2)c1C [Example 1],CC50 at 72 h,[2],> 100000 nM
same,EC50,"[1]; measured using the HCV subgenomic replicon system, read-out: EC50",1200 nM
same,reduced susceptibility to the compound,[3],over 10 fold
same,CC50,"[4]; HCV subgenomic replicon cells, found alongside EC50 in the HCV subgenomic replicon system",20000 nM
same,CC50 at 72 h,"[4]; Crystal Violet, 72-hour period, cells containing wild type replicons",20000 nM
CCCc1cc(O)n2nc(-c3ccc(C)cc3)c(C)c2n1 [Example 1],Kd,HCV NS4B; [7],5960 nM
same,EC50,[1]; [8],2200 nM
COC(=O)c1c(NC(=O)Cc2cccs2)sc(C(=O)Nc2ccc(Cl)cc2)c1C [Example 1],Kd,HCV NS4B; [9],304 nM
same,EC50,[1]; [10],700 nM
COc1ccc(Cl)cc1Nc1nc(-c2cccnc2)cs1 [Example 1],Kd,HCV NS4B; [11],1700 nM
same,EC50,[1]; [12],1500 nM
Cc1nccn1-c1nc(-c2ccc(Cl)cc2)cc(C(F)(F)F)n1 [Example 1],Kd,"HCV NS4B; Table 3, trifluoromethylpyrimidine compound, read-out: Kd",2060 nM
same,EC50,"[1]; Table 3, NS5A protein, 72-hour incubation, read-out: ELISA EC50",2200 nM
CC(=O)Nc1ccc(Nc2nc(-c3cccs3)cs2)cc1 [Example 2],Kd,HCV NS4B; [11],6200 nM
same,EC50,[1]; [12],11200 nM
CCn1c2ccccc2c2nnc(-n3nc(C)c(-c4ccccc4)c3C)nc21 [Example 2],Kd,HCV NS4B; [13],2200 nM
same,EC50,[1]; [14],1000 nM
COC(=O)c1c(NC(=O)c2ccc3c(c2)OCO3)sc(C(=O)NC2CCCCC2)c1C [Example 2],Kd,HCV NS4B; [9],4000 nM
same,EC50,[1]; [10],7600 nM
COc1ccc(C(=O)Nc2ccc(N3CCOCC3)c(Cl)c2)cc1Cl [Example 2],Kd,HCV NS4B; [5],2320 nM
same,EC50,[1]; [6],2500 nM
O=C(NC1CCCC1)c1cc2nc(-c3ccccc3)cc(C(F)(F)F)n2n1 [Example 2],Kd,HCV NS4B; [7],4190 nM
same,EC50,[1]; [8],1700 nM
CC(C)Oc1cccc(C(=O)Nc2ccc(N3CCOCC3)c(Cl)c2)c1 [Example 3],Kd,HCV NS4B,4430 nM
same,EC50,[1]; [6],3900 nM
CCCCc1c(C)nn(-c2nnc3c4ccccc4n(C)c3n2)c1C [Example 3],Kd,HCV NS4B,4300 nM
same,EC50,[1]; [14],5800 nM
COC(=O)c1c(NC(=O)C(C)C)sc(C(=O)Nc2ccc(Cl)cc2)c1C [Example 3],Kd,HCV NS4B,842 nM
same,EC50,[1]; [10],1150 nM
COc1ccc(OC)c(Nc2nc(-c3cccs3)cs2)c1 [Example 3],Kd,HCV NS4B; [11],570 nM
same,EC50,"[1]; 72 h, read-out: ELISA EC50",2500 nM
O=C(NCc1cccs1)c1cc2nc(-c3ccco3)cc(C(F)(F)Cl)n2n1 [Example 3],Kd,HCV NS4B,662 nM
same,EC50,[1]; [8],630 nM
CC(C)c1ccc(NC(=O)c2ccccc2)cc1 [Example 4],Kd,HCV NS4B; [5],6900 nM
same,EC50,[1]; [6],2800 nM
CCC(=O)Nc1sc(C(=O)Nc2ccc(C)cc2)c(C)c1C(=O)OC [Example 4],Kd,HCV NS4B; [9],1670 nM
same,EC50,[1]; [10],3200 nM
Cc1nn(-c2nnc3c4ccccc4n(C)c3n2)c(C)c1C [Example 4],Kd,HCV NS4B; [13],14000 nM
same,EC50,[1]; [14],> 25000 nM
CCC(=O)Nc1sc(C(=O)Nc2ccc(Cl)cc2)c(C)c1C(=O)OC [Example 5],Kd,HCV NS4B; [9],2520 nM
same,EC50,[1]; [10],4550 nM
CCn1c2ccccc2c2nnc(-n3nc(C)c(C)c3C)nc21 [Example 5],Kd,HCV NS4B; [13],15600 nM
same,EC50,[1]; [14],> 25000 nM
CCc1c(C)nn(-c2nnc3c4ccccc4n(C)c3n2)c1C [Example 6],Kd,HCV NS4B; [13],7500 nM
same,EC50,[1]; [14],> 25000 nM
CCCCc1c(C)nn(-c2nnc3c4ccccc4n(CCO)c3n2)c1C [Example 7],Kd,HCV NS4B; [13],2000 nM
same,EC50,[1]; [14],> 25000 nM
CCCCc1c(C)nn(-c2nnc3c4ccccc4n(CCN(C(C)C)C(C)C)c3n2)c1C [Example 8],Kd,HCV NS4B; [13],10300 nM
same,EC50,[1]; [14],6550 nM
CCCCc1c(C)nn(-c2nnc3c4ccccc4n(CCN(CC)CC)c3n2)c1C [Example 9],Kd,HCV NS4B; [13],1800 nM
same,EC50,[1]; [14],5200 nM
CCCCc1c(C)nn(-c2nnc3c(n2)[nH]c2ccccc23)c1C [Example 10],Kd,HCV NS4B; [13],3600 nM
same,EC50,[1]; [14],> 25000 nM
CCCCc1c(C)nn(-c2nnc3c4ccccc4n(CCOC)c3n2)c1C [Example 11],Kd,HCV NS4B; [13],1000 nM
same,EC50,[1]; [14],7000 nM
CCCCc1c(C)nn(-c2nnc3c4ccccc4n(CCSC)c3n2)c1C [Example 12],Kd,HCV NS4B; [13],1800 nM
same,EC50,[1]; [14],10000 nM
